The values that follow come from ChEMBL document CHEMBL2029217, “Design, synthesis, and structure-activity relationships of novel spiro-piperidines as acetyl-CoA carboxylase inhibitors” (Bioorg Med Chem Lett, 2012).

A short description of series [1]: Lipophilicity, log D of the compound at pH 7.4. The note with it: buffer.
Series [2] is described as follows: Clearance in human hepatic microsomes assessed per mg protein at 1 uM after 20 mins by HPLC analysis. The series is classed as ADME, Microsome. The note with it: liver microsomes, read-out: CLH. (In general: Microsomes from liver hold many membrane-bound enzymes, among them those of drug oxidation.)
For another series, the target named is Acetyl-CoA carboxylase 2 (Homo sapiens, UniProt O00763). The experiment in a line: Inhibition of human ACC2 using acetyl-coA as substrate incubated for 60 mins prior to substrate addition measured after 20 mins by malachite green assay.
Chain of Acetyl-CoA carboxylase 2 (O00763 whole entry): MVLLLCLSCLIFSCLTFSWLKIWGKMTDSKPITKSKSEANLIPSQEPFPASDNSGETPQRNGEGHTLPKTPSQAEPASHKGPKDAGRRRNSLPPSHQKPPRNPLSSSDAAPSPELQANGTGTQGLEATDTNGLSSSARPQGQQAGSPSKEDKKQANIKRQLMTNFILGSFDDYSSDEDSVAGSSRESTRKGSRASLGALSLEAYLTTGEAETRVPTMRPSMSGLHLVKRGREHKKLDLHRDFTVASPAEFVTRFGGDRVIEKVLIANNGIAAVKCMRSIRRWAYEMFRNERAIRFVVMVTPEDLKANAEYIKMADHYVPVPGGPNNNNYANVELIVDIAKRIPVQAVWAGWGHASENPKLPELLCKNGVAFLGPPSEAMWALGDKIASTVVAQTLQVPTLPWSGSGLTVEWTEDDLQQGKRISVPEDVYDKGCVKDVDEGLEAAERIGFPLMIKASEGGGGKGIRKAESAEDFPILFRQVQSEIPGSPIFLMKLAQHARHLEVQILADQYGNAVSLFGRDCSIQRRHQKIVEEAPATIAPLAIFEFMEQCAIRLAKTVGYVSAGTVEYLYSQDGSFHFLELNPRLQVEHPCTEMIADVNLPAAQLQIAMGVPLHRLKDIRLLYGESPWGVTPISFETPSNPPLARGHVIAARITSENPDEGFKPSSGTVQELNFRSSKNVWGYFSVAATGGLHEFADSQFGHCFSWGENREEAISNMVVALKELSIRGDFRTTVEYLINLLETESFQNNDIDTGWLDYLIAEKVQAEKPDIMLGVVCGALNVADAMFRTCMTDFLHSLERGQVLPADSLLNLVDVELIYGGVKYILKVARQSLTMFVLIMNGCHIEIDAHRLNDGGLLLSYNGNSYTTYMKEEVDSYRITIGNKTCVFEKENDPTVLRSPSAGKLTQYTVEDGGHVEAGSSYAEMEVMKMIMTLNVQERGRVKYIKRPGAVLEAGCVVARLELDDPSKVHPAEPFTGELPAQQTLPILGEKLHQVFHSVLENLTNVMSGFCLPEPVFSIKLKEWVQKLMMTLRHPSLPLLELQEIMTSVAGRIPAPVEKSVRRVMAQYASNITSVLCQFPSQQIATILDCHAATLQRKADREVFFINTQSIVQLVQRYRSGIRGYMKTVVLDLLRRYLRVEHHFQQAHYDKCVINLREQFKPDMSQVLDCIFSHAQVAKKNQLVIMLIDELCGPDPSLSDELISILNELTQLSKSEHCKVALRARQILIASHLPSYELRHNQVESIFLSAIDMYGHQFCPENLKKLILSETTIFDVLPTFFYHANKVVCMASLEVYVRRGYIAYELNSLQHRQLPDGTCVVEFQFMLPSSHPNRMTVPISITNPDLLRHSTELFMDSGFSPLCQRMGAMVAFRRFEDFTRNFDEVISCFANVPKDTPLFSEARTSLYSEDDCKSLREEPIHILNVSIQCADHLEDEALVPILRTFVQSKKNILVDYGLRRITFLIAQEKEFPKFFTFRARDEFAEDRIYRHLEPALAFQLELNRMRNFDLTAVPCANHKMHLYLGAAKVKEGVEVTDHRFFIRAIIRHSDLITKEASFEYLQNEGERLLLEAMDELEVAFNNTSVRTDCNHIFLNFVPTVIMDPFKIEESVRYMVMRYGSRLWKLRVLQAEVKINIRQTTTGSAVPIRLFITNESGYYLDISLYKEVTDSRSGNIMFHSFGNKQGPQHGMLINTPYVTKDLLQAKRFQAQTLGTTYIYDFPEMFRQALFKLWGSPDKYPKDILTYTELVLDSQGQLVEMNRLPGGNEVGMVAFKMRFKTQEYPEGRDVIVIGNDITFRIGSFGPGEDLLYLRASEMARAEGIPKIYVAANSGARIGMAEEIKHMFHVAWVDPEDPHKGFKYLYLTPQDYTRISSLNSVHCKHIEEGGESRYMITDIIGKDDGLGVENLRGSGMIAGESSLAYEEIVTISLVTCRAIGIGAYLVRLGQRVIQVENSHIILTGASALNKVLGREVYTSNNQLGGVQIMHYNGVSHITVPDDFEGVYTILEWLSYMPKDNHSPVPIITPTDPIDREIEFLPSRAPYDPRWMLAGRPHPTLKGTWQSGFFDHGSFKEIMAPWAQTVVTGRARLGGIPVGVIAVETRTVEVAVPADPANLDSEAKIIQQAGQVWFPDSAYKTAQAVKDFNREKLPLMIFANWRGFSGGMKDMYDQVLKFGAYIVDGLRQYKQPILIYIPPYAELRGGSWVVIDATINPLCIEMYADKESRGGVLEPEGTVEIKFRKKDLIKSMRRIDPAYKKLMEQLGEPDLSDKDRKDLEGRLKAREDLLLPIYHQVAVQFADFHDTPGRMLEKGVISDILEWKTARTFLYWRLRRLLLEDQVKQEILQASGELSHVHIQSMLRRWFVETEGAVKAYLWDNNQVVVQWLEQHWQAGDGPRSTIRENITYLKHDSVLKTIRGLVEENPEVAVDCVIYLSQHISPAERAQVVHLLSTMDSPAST
Another series has as its target Acetyl-CoA carboxylase 1 (Homo sapiens, UniProt Q13085). Nature of the series: Inhibition of human ACC1 using acetyl-coA as substrate incubated for 60 mins prior to substrate addition measured after 20 mins by malachite green assay.
Series [3] can be described thus: Tmax in Crl:CD(SD)(IGS) rat at 3 mg/kg, po. On the set-up: dose 3 mg/kg, route oral. The series is classed as ADME, organism-based. The note with it: in vivo.
A short description of series [4]: Cmax in Crl:CD(SD)(IGS) rat at 3 mg/kg, po. The series is classed as ADME, organism-based. On the set-up: dose 3 mg/kg, route oral. The settings on record: in vivo.
A short description of series [5]: Mean residence time in Crl:CD(SD)(IGS) rat at 1 mg/kg, iv. The series is classed as ADME, organism-based. On the set-up: dose 1 mg/kg, route intravenous. The note with it: in vivo.
A short description of series [6]: Volume of distribution at steady state in Crl:CD(SD)(IGS) rat at 1 mg/kg, iv. The format is ADME, organism-based. On the set-up: dose 1 mg/kg, route intravenous. The settings on record: in vivo, read-out: Vdss.
Series [7] can be described thus: Total clearance in Crl:CD(SD)(IGS) rat at 1 mg/kg, iv. The format is ADME, organism-based. On the set-up: dose 1 mg/kg, route intravenous. The note with it: in vivo.
Series [8] is described as follows: AUC in Crl:CD(SD)(IGS) rat at 3 mg/kg, po. The series is classed as ADME, organism-based. On the set-up: dose 3 mg/kg, route oral. The note with it: plasma.
Series [9] can be described thus: Oral bioavailability in Crl:CD(SD)(IGS) rat at 3 mg/kg. The series is classed as ADME, organism-based. The settings on record: in vivo.

pIC50: −log10 of the molar value.

Usually logD stands for the decadic logarithm of the distribution of all forms, ionised or not, between an organic phase and buffer at a given pH. Low readings indicate a more hydrophilic compound, high ones a more lipophilic compound. `CCNC(=O)Nc1sc2ccccc2c1C(=O)N1CCC(N2CCC[C@@]3(C2)CC(C)(C)OC3=O)CC1` had a logD in series [1] of 3.01. Also, the microsomal CLint at 1 µM in series [2] was 230 µL/min/mg.
One may read the pIC50 as the IC50 on a negative log10 scale, so that one unit is a factor of ten. Read a low pIC50 as a high IC50. `CCN1C(=O)CC2(CCCN(C3CCN(C(=O)c4c(NC(N)=O)sc5ccccc45)CC3)C2)C1=O` (stereo not given) showed a log distribution coefficient (logD) in series [1] of 2.2. Moreover, in series [2], the microsomal CLint at 1 µM worked out at 64 µL/min/mg. The pIC50 is 7.64 against Acetyl-CoA carboxylase 2 and 6.46 at Acetyl-CoA carboxylase 1.
Consider `CNC(=O)Nc1sc2nc(C)ccc2c1C(=O)N1CCC(N2CCC[C@@]3(C2)CC(C)(C)OC3=O)CC1`, for which the logD in series [1] worked out at 2.18. Moreover, the microsomal CLint at 1 µM in series [2] was determined as 90 µL/min/mg. Moreover, the values for the negative-log IC50 (pIC50) at Acetyl-CoA carboxylase 2 and on Acetyl-CoA carboxylase 1 were 8.36 and 7.32, respectively.
With `CCNC(=O)Nc1sc2nc(C)ccc2c1C(=O)N1CCC(N2CCC[C@]3(CCN(C(C)C)C3=O)C2)CC1`, the pH-dependent lipophilicity (logD) in series [1] was found to be 2.43. Further, the microsomal CLint at 1 µM in series [2] worked out at 45 µL/min/mg. Also, the values for the negative logarithm of the IC50 (pIC50) against Acetyl-CoA carboxylase 2 and against Acetyl-CoA carboxylase 1 were 8.05 and 7.03, respectively.
As usually defined, the Tmax is the time at which the peak concentration occurs. As usually defined, the Cmax is the peak of the concentration-time curve. What is called MRT is a mean duration of stay, worked out from the concentration-time curve. A word on the clearance: it is a measure of how efficiently the substance is removed, as volume per time. High values mean a high capacity for elimination, low ones a low capacity for elimination. By AUC is commonly meant the area under the concentration-time curve, a measure of exposure. A higher AUC goes with more exposure. The term bioavailability denotes the share of a dose that reaches the circulation, judged against a reference dose that is usually intravenous. The low end stands for little systemic uptake, the high end for much systemic uptake. For the compound `CNC(=O)Nc1sc2nc(C)ccc2c1C(=O)N1CCC(N2CCC[C@]3(CC(=O)N(C(C)C)C3=O)C2)CC1`, the time of peak concentration (Tmax) in series [3] is 30 min. In addition, in series [4], the Cmax came out at 440 ng/mL. Also, the MRT in [5] was 78 min. The Vd in series [6] came out at 1.3 L/kg. This compound also gave a clearance in series [7] of 15.8 mL/min/kg. In series [1], this compound returned a log distribution coefficient (logD) of 2.51. Besides, the microsomal CLint at 1 µM in series [2] is 33 µL/min/mg. The pIC50 on Acetyl-CoA carboxylase 2 was 8.07; on Acetyl-CoA carboxylase 1, 6.80. The AUC in series [8] came to 1400 ng·h/mL. Besides, the bioavailability in [9] worked out at 45%.
In the case of `CCNC(=O)Nc1sc2nc(C)ccc2c1C(=O)N1CCC(N2CCCC3(C2)OC(=O)N(C(C)C)C3=O)CC1` (stereo not given), the logD in series [1] is 2.39. The microsomal CLint at 1 µM in series [2] amounted to 38 µL/min/mg. The pIC50 against Acetyl-CoA carboxylase 2 is 7.82; at Acetyl-CoA carboxylase 1, 6.80.
The matching figures for `CCNC(=O)Nc1sc2nc(C)ccc2c1C(=O)N1CCC(N2CCCC3(C2)N=C(C)N(C(C)C)C3=O)CC1` (stereo not given): 2.27, 47 µL/min/mg, 7.82 and 7.12.
`CCNC(=O)Nc1sc2ccccc2c1C(=O)N1CCC(N2CCCC3(C2)CC(C)(C)OC3=O)CC1` (racemic) gave a logD in series [1] of 3.01. In series [2], the microsomal CLint at 1 µM amounted to 180 µL/min/mg.
`CCNC(=O)Nc1sc2ccccc2c1C(=O)N1CCC(N2CCCC3(CC(=O)N(CC)C3=O)C2)CC1` (racemic): the microsomal CLint at 1 µM in [2] was 130 µL/min/mg. Also, the pIC50 at Acetyl-CoA carboxylase 2 is 7.49; against Acetyl-CoA carboxylase 1, 6.64.
In series [1], `CCN1C(=O)OC2(CCCN(C3CCN(C(=O)c4c(NC(N)=O)sc5ccccc45)CC3)C2)C1=O` (racemic) gave a pH-dependent lipophilicity (logD) of 1.85. The microsomal CLint at 1 µM in series [2] was found to be 41 µL/min/mg.
The compound `CCNC(=O)Nc1sc2ccccc2c1C(=O)N1CCC(N2CCCC3(C2)OC(=O)N(CC)C3=O)CC1` (racemic) registered a logD in [1] of 2.47. In addition, in series [2], the microsomal CLint at 1 µM is 98 µL/min/mg. In addition, the pIC50 against Acetyl-CoA carboxylase 2 was 7.40; against Acetyl-CoA carboxylase 1 it was 6.72.
The matching figures for `CCNC(=O)Nc1sc2ccccc2c1C(=O)N1CCC(N2CCCC3(C2)NC(=O)N(CC)C3=O)CC1` (racemic): 2.44, 110 µL/min/mg, 7.66 and 6.55.
The matching figures for `CCNC(=O)Nc1sc2ccccc2c1C(=O)N1CCC(N2CCCC3(C2)C(=O)N(CC)C(=O)N3C)CC1` (racemic): 2.79, 190 µL/min/mg, 7.29 and 6.44.
Taken in the same sequence, the figures for `CCN1C(=O)C2(CCCN(C3CCN(C(=O)c4c(NC(N)=O)sc5ccccc45)CC3)C2)N=C1C` (racemic) were 1.77, 60 µL/min/mg, 7.12 and 6.52.
Take `CCC1=NC2(CCCN(C3CCN(C(=O)c4c(NC(N)=O)sc5ccccc45)CC3)C2)C(=O)N1CC` (racemic): the logD in series [1] came out at 2.09. Moreover, the microsomal CLint at 1 µM in series [2] was 150 µL/min/mg. Further, the values for the pIC50 against Acetyl-CoA carboxylase 2 and at Acetyl-CoA carboxylase 1 were 7.37 and 6.39, respectively.
Taken in the same sequence, the figures for `CCN1C(=O)C2(CCCN(C3CCN(C(=O)c4c(NC(N)=O)sc5ccccc45)CC3)C2)N=C1C(C)C` (racemic) were 2.43, 230 µL/min/mg, 7.77 and 7.10.
Turning to `CCNC(=O)Nc1sc2ccccc2c1C(=O)N1CCC(N2CCCC3(CCNC3=O)C2)CC1` (racemic), the pH-dependent lipophilicity (logD) in series [1] was found to be 2.06. For the same compound, the microsomal CLint at 1 µM in [2] was 35 µL/min/mg. Besides, the pIC50 was 7.10 against Acetyl-CoA carboxylase 2 and 6.19 at Acetyl-CoA carboxylase 1.
Taken in the same sequence, the figures for `CCNC(=O)Nc1sc2ccccc2c1C(=O)N1CCC(N2CCCC3(CCN(C)C3=O)C2)CC1` (racemic) were 2.23, 45 µL/min/mg, 7.19 and 6.29.
Taken in the same sequence, the figures for `CCNC(=O)Nc1sc2ccccc2c1C(=O)N1CCC(N2CCCC3(CCN(CC)C3=O)C2)CC1` (racemic) were 2.62, 71 µL/min/mg, 7.48 and 6.46.
The matching figures for `CNC(=O)Nc1sc2ccccc2c1C(=O)N1CCC(N2CCCC3(CCN(C(C)C)C3=O)C2)CC1` (racemic): 2.61, 66 µL/min/mg, 7.74 and 6.92.
As for `CCNC(=O)Nc1sc2ncccc2c1C(=O)N1CCC(N2CCCC3(C2)CC(C)(C)OC3=O)CC1` (racemic), in series [1], the logD came out at 2.08. For the same compound, the microsomal CLint at 1 µM in series [2] came to 110 µL/min/mg. The negative logarithm of the IC50 (pIC50) at Acetyl-CoA carboxylase 2 was 7.80; on Acetyl-CoA carboxylase 1, 6.96.
Taken in the same sequence, the figures for `CCNC(=O)Nc1sc2nc(C)ccc2c1C(=O)N1CCC(N2CCCC3(C2)CC(C)(C)OC3=O)CC1` (racemic) were 2.49, 79 µL/min/mg, 7.85 and 7.11.
As for `CCNC(=O)Nc1sc2cccnc2c1C(=O)N1CCC(N2CCCC3(C2)CC(C)(C)OC3=O)CC1` (racemic), the logD in series [1] was 2.45. In addition, the microsomal CLint at 1 µM in series [2] amounted to 120 µL/min/mg. Also, the negative-log IC50 (pIC50) against Acetyl-CoA carboxylase 2 is 7.57; on Acetyl-CoA carboxylase 1, 6.82.
Taken in the same sequence, the figures for `CCNC(=O)Nc1sc2nccnc2c1C(=O)N1CCC(N2CCCC3(C2)CC(C)(C)OC3=O)CC1` (racemic) were 2.32, 110 µL/min/mg, 7.43 and 6.82.
The matching figures for `CCNC(=O)Nc1sc2nc(C)ccc2c1C(=O)N1CCC(N2CCCC3(C2)NC(=O)N(C(C)C)C3=O)CC1` (racemic): 2.39, 26 µL/min/mg, 7.77 and 6.82.
